Data taken from ChEMBL document CHEMBL3232998, “Spiromastixones A-O, antibacterial chlorodepsidones from a deep-sea-derived Spiromastix sp. fungus” (J Nat Prod, 2014).
≈ marks a conversion by molar mass, not a printed value. Blank lines part the entries; values can stand above or below the compound they belong to.

Legend:
[1] = test system: Staphylococcus aureus; assay: Antibacterial activity against Staphylococcus aureus ATCC 29213 after 18 hrs by broth microdilution method; format: functional; conditions: ATCC 29213, 18 h
[2] = test system: Escherichia coli; assay: Antibacterial activity against Escherichia coli ATCC 25922 after 18 hrs by broth microdilution method; format: functional; conditions: ATCC 25922, 18 h
[3] = test system: Bacillus thuringiensis; assay: Antibacterial activity against Bacillus thuringiensis SCSIO BT01 after 18 hrs by broth microdilution method; format: functional; conditions: SCSIO BT01, 18 h
[4] = test system: Bacillus subtilis; assay: Antibacterial activity against Bacillus subtilis SCSIO BS01 after 18 hrs by broth microdilution method; format: functional; conditions: SCSIO BS01, 18 h
[5] = test system: Staphylococcus epidermidis; assay: Antibacterial activity against methicillin-sensitive Staphylococcus epidermidis 12-6 after 18 hrs by broth microdilution method; format: functional, organism-based; conditions: 12-6, 18 h
[6] = test system: Staphylococcus epidermidis; assay: Antibacterial activity against methicillin-sensitive Staphylococcus epidermidis ATCC 12228 after 18 hrs by broth microdilution method; format: functional, organism-based; conditions: ATCC 12228, 18 h, read-out: IC50
[7] = test system: Staphylococcus aureus; assay: Antibacterial activity against methicillin-sensitive Staphylococcus aureus ATCC 29213 after 18 hrs by broth microdilution method; format: functional, organism-based; conditions: ATCC 29213, 18 h, read-out: IC50
[8] = test system: Enterococcus faecium; assay: Antibacterial activity against vancomycin-resistant Enterococcus faecium ATCC 700221 after 18 hrs by broth microdilution method; format: functional, organism-based; conditions: ATCC 700221, 18 h, read-out: IC50
[9] = test system: Klebsiella pneumoniae; assay: Antibacterial activity against extended spectrum beta-lactamase-deficient Klebsiella pneumoniae 12-4 after 18 hrs by broth microdilution method; format: functional, organism-based; conditions: 12-4, 18 h
[10] = test system: Enterococcus faecium; assay: Antibacterial activity against vancomycin-sensitive Enterococcus faecium 12-3 after 18 hrs by broth microdilution method; format: functional, organism-based; conditions: 12-3, 18 h, read-out: IC50
[11] = test system: Escherichia coli; assay: Antibacterial activity against extended spectrum beta-lactamase-deficient Escherichia coli ATCC 25922 after 18 hrs by broth microdilution method; format: functional, organism-based; conditions: ATCC 25922, 18 h, read-out: IC50
[12] = test system: Staphylococcus aureus; assay: Antibacterial activity against methicillin-resistant Staphylococcus aureus 12-33 after 18 hrs by broth microdilution method; format: functional, organism-based; conditions: 12-33, 18 h, read-out: IC50
[13] = test system: Staphylococcus epidermidis; assay: Antibacterial activity against methicillin-resistant Staphylococcus epidermidis 12-8 after 18 hrs by broth microdilution method; format: functional, organism-based; conditions: 12-8, 18 h, read-out: IC50
[14] = test system: Staphylococcus aureus; assay: Antibacterial activity against methicillin-resistant Staphylococcus aureus ATCC 33591 after 18 hrs by broth microdilution method; format: functional, organism-based; conditions: ATCC 33591, 18 h, read-out: IC50
[15] = test system: Klebsiella pneumoniae; assay: Antibacterial activity against extended spectrum beta-lactamase producing Klebsiella pneumoniae ATCC 700603 after 18 hrs by broth microdilution method; format: functional, organism-based; conditions: ATCC 700603, 18 h
[16] = test system: Klebsiella pneumoniae; assay: Antibacterial activity against NDM-1 producing Klebsiella pneumoniae ATCC BAA-2146 after 18 hrs by broth microdilution method; format: functional, organism-based; conditions: ATCC BAA-2146, 18 h, read-out: IC50
[17] = test system: Enterococcus faecalis; assay: Antibacterial activity against vancomycin-sensitive Enterococcus faecalis 12-5 after 18 hrs by broth microdilution method; format: functional, organism-based; conditions: 12-5, 18 h, read-out: IC50
[18] = test system: Enterococcus faecium; assay: Antibacterial activity against vancomycin-resistant Enterococcus faecium 12-1 after 18 hrs by broth microdilution method; format: functional, organism-based; conditions: 12-1, 18 h, read-out: IC50
[19] = test system: Staphylococcus aureus; assay: Antibacterial activity against methicillin-sensitive Staphylococcus aureus 15 after 18 hrs by broth microdilution method; format: functional, organism-based; conditions: Staphylococcus aureus, 15, 18 h; read-out: IC50
[20] = test system: Enterococcus faecalis; assay: Antibacterial activity against vancomycin-resistant Enterococcus faecalis 09-9 after 18 hrs by broth microdilution method; format: functional, organism-based; conditions: 09-9, 18 h, read-out: IC50
[21] = test system: Escherichia coli; assay: Antibacterial activity against extended spectrum beta-lactamase-deficient Escherichia coli 12-14 after 18 hrs by broth microdilution method; format: functional, organism-based; conditions: 12-14, 18 h, read-out: IC50
[22] = test system: Enterococcus faecalis; assay: Antibacterial activity against vancomycin-sensitive Enterococcus faecalis ATCC 29212 after 18 hrs by broth microdilution method; format: functional, organism-based; conditions: ATCC 29212, 18 h, read-out: IC50
[23] = test system: Klebsiella pneumoniae; assay: Antibacterial activity against extended spectrum beta-lactamase-deficient Klebsiella pneumoniae 7 after 18 hrs by broth microdilution method; format: functional, organism-based; conditions: Klebsiella pneumoniae, 7, 18 h; read-out: IC50
[24] = test system: Klebsiella pneumoniae; assay: Antibacterial activity against extended spectrum beta-lactamase producing Klebsiella pneumoniae 12-8 after 18 hrs by broth microdilution method; format: functional, organism-based; conditions: 12-8, 18 h, read-out: IC50
[25] = test system: Enterococcus faecalis; assay: Antibacterial activity against vancomycin-resistant Enterococcus faecalis ATCC 51299 after 18 hrs by broth microdilution method; format: functional, organism-based; conditions: ATCC 51299, 18 h, read-out: IC50
[26] = test system: Staphylococcus aureus; assay: Antibacterial activity against methicillin-sensitive Staphylococcus aureus 12-28 after 18 hrs by broth microdilution method; format: functional, organism-based; conditions: 12-28, 18 h
[27] = test system: Escherichia coli; assay: Antibacterial activity against extended spectrum beta-lactamase producing Escherichia coli 12-15 after 18 hrs by broth microdilution method; format: functional, organism-based; conditions: 12-15, 18 h, read-out: IC50
[28] = test system: Escherichia coli; assay: Antibacterial activity against extended spectrum beta-lactamase-deficient Escherichia coli 1515 after 18 hrs by broth microdilution method; format: functional, organism-based; conditions: Escherichia coli, 1515, 18 h

MIC [1]: 4 µg/mL (≈ 12.2 µM)
MIC [2]: > 128 µg/mL
MIC [3]: 4 µg/mL (≈ 12.2 µM)
MIC [4]: 8 µg/mL (≈ 24.4 µM)
Structure (SMILES): CCCc1cc(O)cc2c1Oc1cc(O)cc(CCC)c1C(=O)O2

MIC [1]: 8 µg/mL (≈ 22.1 µM)
MIC [2]: > 128 µg/mL
MIC [3]: 4 µg/mL (≈ 11 µM)
MIC [4]: 8 µg/mL (≈ 22.1 µM)
Structure (SMILES): CCCc1cc(O)cc2c1Oc1cc(O)c(Cl)c(CCC)c1C(=O)O2

Structure (SMILES): CCCc1cc(O)cc2c1Oc1c(Cl)c(O)cc(CCC)c1C(=O)O2
IC50 [5]: 64 µM
MIC [6]: 64 µM (≈ 23.2 µg/mL)
MIC [7]: 32 µM (≈ 11.6 µg/mL)
MIC [8]: > 256 µM
IC50 [9]: > 256 µM
MIC [10]: > 256 µM
MIC [11]: > 256 µM
MIC [12]: 64 µM (≈ 23.2 µg/mL)
MIC [13]: 32 µM (≈ 11.6 µg/mL)
MIC [1]: 8 µg/mL (≈ 22.1 µM)
MIC [14]: 64 µM (≈ 23.2 µg/mL)
IC50 [15]: > 256 µM
MIC [2]: > 128 µg/mL
MIC [16]: > 256 µM
MIC [17]: > 256 µM
MIC [18]: 256 µM (≈ 92.9 µg/mL)
MIC [19]: 64 µM (≈ 23.2 µg/mL)
MIC [20]: 256 µM (≈ 92.9 µg/mL)
MIC [21]: > 256 µM
MIC [22]: 256 µM (≈ 92.9 µg/mL)
MIC [3]: 8 µg/mL (≈ 22.1 µM)
MIC [23]: > 256 µM
MIC [24]: > 256 µM
MIC [4]: 16 µg/mL (≈ 44.1 µM)
MIC [25]: > 256 µM
IC50 [26]: 64 µM
MIC [27]: > 256 µM
IC50 [28]: > 256 µM

MIC [1]: 2 µg/mL (≈ 5.03 µM)
MIC [2]: > 128 µg/mL
MIC [3]: 2 µg/mL (≈ 5.03 µM)
MIC [4]: 2 µg/mL (≈ 5.03 µM)
Structure (SMILES): CCCc1cc(O)c(Cl)c2c1C(=O)Oc1cc(O)c(Cl)c(CCC)c1O2
